Data from the NIST ThermoML archive (doi:10.1016/j.tca.2006.05.010).

Tests used:
[1] = molar heat capacity at constant pressure; xn = mol fraction of the nth substance listed; conditions: 308.15 K, 101 kPa, Liquid, Small sample (50 mg) DSC
[2] = excess molar enthalpy (molar enthalpy of mixing); xn = mol fraction of the nth substance listed; conditions: 308.15 K, 101 kPa, Liquid, Flow calorimetry
[3] = 101.33 kPa, Liquid, Vibrating tube method
[4] = molar heat capacity at constant pressure; conditions: 101.33 kPa, Liquid, Small sample (50 mg) DSC
[5] = refractive index (Na D-line) (dimensionless); conditions: 101.33 kPa, Liquid, Standard Abbe refractometry

C1COCCO1 [1,4-dioxane] + C[S+](C)[O-]
Conditions	excess molar enthalpy [kcal/mol]	molar heat capacity at constant pressure [J/K/mol]
[1], x2 = 0.0749	–	154.8
[1], x2 = 0.1148	–	155.1
[1], x2 = 0.2112	–	155.5
[1], x2 = 0.313	–	155.4
[1], x2 = 0.4096	–	155.1
[1], x2 = 0.5185	–	154.6
[1], x2 = 0.6108	–	153.9
[1], x2 = 0.6637	–	153.5
[1], x2 = 0.7064	–	153.2
[1], x2 = 0.8128	–	152.5
[1], x2 = 0.8952	–	152.7
[1], x2 = 0.9586	–	153.5
[2], x2 = 0.0478	0.0318	–
[2], x2 = 0.0911	0.0531	–
[2], x2 = 0.1308	0.0672	–
[2], x2 = 0.1671	0.0765	–
[2], x2 = 0.2313	0.0872	–
[2], x2 = 0.2863	0.0923	–
[2], x2 = 0.3757	0.0978	–
[2], x2 = 0.4451	0.0997	–
[2], x2 = 0.5462	0.0966	–
[2], x2 = 0.6437	0.0915	–
[2], x2 = 0.7066	0.0851	–
[2], x2 = 0.7831	0.0741	–
[2], x2 = 0.828	0.065	–
[2], x2 = 0.8784	0.0495	–
[2], x2 = 0.9059	0.0399	–
[2], x2 = 0.9353	0.0277	–
[2], x2 = 0.9665	0.0158	–

C[S+](C)[O-] [dimethyl sulfoxide]
Conditions	mass density [kg/m3]	molar heat capacity at constant pressure [J/K/mol]	refractive index
[3], 298.15 K	1095.58	–	–
[3], 308.15 K	1085.5	–	–
[4], 293.15 K	–	151.2	–
[4], 298.15 K	–	152.4	–
[4], 303.15 K	–	153.4	–
[4], 308.15 K	–	154.8	–
[4], 313.15 K	–	155.4	–
[4], 318.15 K	–	156.6	–
[4], 323.15 K	–	157.7	–
[4], 328.15 K	–	157.8	–
[4], 333.15 K	–	158.5	–
[4], 338.15 K	–	159.3	–
[4], 343.15 K	–	159.5	–
[4], 348.15 K	–	160.2	–
[4], 353.15 K	–	160.3	–
[4], 358.15 K	–	161.3	–
[4], 363.15 K	–	161.5	–
[4], 368.15 K	–	161.7	–
[4], 373.15 K	–	162.6	–
[4], 378.15 K	–	163.3	–
[4], 383.15 K	–	164.8	–
[4], 388.15 K	–	166.3	–
[4], 393.15 K	–	168.3	–
[4], 398.15 K	–	169.1	–
[4], 403.15 K	–	170.3	–
[4], 408.15 K	–	170.4	–
[4], 413.15 K	–	170.6	–
[4], 418.15 K	–	171.1	–
[4], 423.15 K	–	171.2	–
[5], 298.15 K	–	–	1.4775
[5], 308.15 K	–	–	1.4729

C1CCOC1 [tetrahydrofuran]
Conditions	mass density, [3] [kg/m3]	molar heat capacity at constant pressure, [4] [J/K/mol]	refractive index, [5]
288.15 K	–	121.1	–
293.15 K	–	123.8	–
298.15 K	881.9	126.4	1.4048
303.15 K	–	128.5	–
308.15 K	870.99	131.4	1.4002
313.15 K	–	133.2	–
318.15 K	–	135.2	–
323.15 K	–	136.6	–

C1CCOC1 [tetrahydrofuran] + C[S+](C)[O-]
Conditions	excess molar enthalpy [kcal/mol]	molar heat capacity at constant pressure [J/K/mol]
[1], x2 = 0.0807	–	132.9
[1], x2 = 0.1171	–	133.6
[1], x2 = 0.2353	–	135.9
[1], x2 = 0.3233	–	137.7
[1], x2 = 0.4932	–	141.4
[1], x2 = 0.5284	–	142.3
[1], x2 = 0.5833	–	143.6
[1], x2 = 0.6359	–	144.9
[1], x2 = 0.7298	–	147.2
[1], x2 = 0.8269	–	149.8
[1], x2 = 0.893	–	151.6
[1], x2 = 0.9507	–	153.2
[2], x2 = 0.0457	0.0509	–
[2], x2 = 0.0875	0.0889	–
[2], x2 = 0.1257	0.117	–
[2], x2 = 0.1608	0.138	–
[2], x2 = 0.2233	0.167	–
[2], x2 = 0.2771	0.183	–
[2], x2 = 0.3651	0.204	–
[2], x2 = 0.4339	0.208	–
[2], x2 = 0.5349	0.209	–
[2], x2 = 0.6332	0.201	–
[2], x2 = 0.697	0.185	–
[2], x2 = 0.7753	0.163	–
[2], x2 = 0.8215	0.141	–
[2], x2 = 0.8735	0.113	–
[2], x2 = 0.902	0.0956	–
[2], x2 = 0.9325	0.0696	–
[2], x2 = 0.965	0.039	–

C1CCOCC1 [tetrahydropyran]
Conditions	mass density [kg/m3]	molar heat capacity at constant pressure [J/K/mol]	refractive index
[3], 298.15 K	879.31	–	–
[3], 308.15 K	868.85	–	–
[4], 288.15 K	–	143.9	–
[4], 293.15 K	–	146.3	–
[4], 298.15 K	–	147.9	–
[4], 303.15 K	–	149.7	–
[4], 308.15 K	–	151.7	–
[4], 313.15 K	–	154.3	–
[4], 318.15 K	–	156.5	–
[4], 323.15 K	–	159.1	–
[4], 328.15 K	–	161.6	–
[4], 333.15 K	–	164.2	–
[5], 298.15 K	–	–	1.4188
[5], 308.15 K	–	–	1.4142

C1CCOCC1 [tetrahydropyran] + C[S+](C)[O-]
Conditions	excess molar enthalpy [kcal/mol]	molar heat capacity at constant pressure [J/K/mol]
[1], x2 = 0.0834	–	152.1
[1], x2 = 0.1416	–	152.4
[1], x2 = 0.2619	–	152.8
[1], x2 = 0.376	–	153.1
[1], x2 = 0.4572	–	153.5
[1], x2 = 0.5817	–	153.7
[1], x2 = 0.6249	–	153.8
[1], x2 = 0.659	–	153.8
[1], x2 = 0.7619	–	153.9
[1], x2 = 0.8405	–	154
[1], x2 = 0.9268	–	154.2
[1], x2 = 0.952	–	154.3
[2], x2 = 0.0543	0.0899	–
[2], x2 = 0.1148	0.16	–
[2], x2 = 0.1469	0.187	–
[2], x2 = 0.1867	0.214	–
[2], x2 = 0.2562	0.243	–
[2], x2 = 0.3146	0.261	–
[2], x2 = 0.4079	0.273	–
[2], x2 = 0.4786	0.278	–
[2], x2 = 0.5708	0.27	–
[2], x2 = 0.6739	0.247	–
[2], x2 = 0.7337	0.226	–
[2], x2 = 0.8051	0.19	–
[2], x2 = 0.8464	0.164	–
[2], x2 = 0.8921	0.121	–
[2], x2 = 0.9168	0.0985	–
[2], x2 = 0.9429	0.0705	–
[2], x2 = 0.9706	0.0375	–
